Source: PubChem BioAssay (NCI)
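The compound was tested at five concentrations on cells cultured in 96-well plates, with a 48-hour exposure period. Abbreviation: GI50, concentration required for 50% inhibition of growth. TGI marks complete inhibition of growth.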

Columns and labels:
Assay in all cases: DTP human tumour cell line panel, 48 h
[1] = test system: 786-0 renal
[2] = test system: A498 renal
[3] = test system: A549 NSCLC
[4] = test system: ACHN renal
[5] = test system: CCRF-CEM leukemia
[6] = test system: COLO 205 colon
[7] = test system: DU-145 prostate
[8] = test system: EKVX NSCLC
[9] = test system: HCC-2998 colon
[10] = test system: HCT-116 colon
[11] = test system: HCT-15 colon
[12] = test system: HL-60(TB) leukemia
[13] = test system: HOP-62 NSCLC
[14] = test system: HOP-92 NSCLC
[15] = test system: HS 578T breast
[16] = test system: HT29 colon
[17] = test system: IGROV1 ovarian
[18] = test system: K-562 leukemia
[19] = test system: KM12 colon
[20] = test system: LOX IMVI melanoma
[21] = test system: M14 melanoma
[22] = test system: MALME-3M melanoma
[23] = test system: MCF7 breast
[24] = test system: MDA-MB-231 breast
[25] = test system: MDA-MB-435
[26] = test system: MOLT-4 leukemia
[27] = test system: NCI-H226 lung
[28] = test system: NCI-H23 lung
[29] = test system: NCI-H460 lung
[30] = test system: NCI-H522 lung
[31] = test system: NCI/ADR-RES ovarian
[32] = test system: OVCAR-3 ovarian
[33] = test system: OVCAR-4 ovarian
[34] = test system: OVCAR-5 ovarian
[35] = test system: OVCAR-8 ovarian
[36] = test system: PC-3 prostate
[37] = test system: RPMI-8226 leukemia
[38] = test system: RXF 393 renal
[39] = test system: SF-268 CNS
[40] = test system: SF-295 CNS
[41] = test system: SF-539 CNS
[42] = test system: SK-MEL-2 melanoma
[43] = test system: SK-MEL-28 melanoma
[44] = test system: SK-MEL-5 melanoma
[45] = test system: SK-OV-3 ovarian
[46] = test system: SN12C renal
[47] = test system: SNB-19 CNS
[48] = test system: SNB-75 CNS
[49] = test system: SR leukemia
[50] = test system: SW-620 colon
[51] = test system: T-47D breast
[52] = test system: TK-10 renal
[53] = test system: U251 CNS
[54] = test system: UACC-257 melanoma
[55] = test system: UACC-62 melanoma
[56] = test system: UO-31 renal
[57] = test system: CAKI-1 renal

Molecule `CCOC(=O)c1c(C)nc2c(c1N)CC(=O)N2CCc1ccccc1` has a GI50 [1] of 0.466 µM, a TGI [1] of 17.1 µM and a GI50 [2] of 3.2 µM. The TGI [2] was 10.8 µM, the GI50 [3] was 4.19 µM and the TGI [3] was 36.9 µM. The GI50 [4] was 0.595 µM, the TGI [4] was 6.48 µM and the GI50 [5] was 389 nM. The TGI [5] was 14.4 µM, the GI50 [6] was 0.518 µM and the TGI [6] was 13.6 µM. The GI50 [7] was 0.881 µM, the TGI [7] was 16 µM and the GI50 [8] was 6.06 µM. For the same molecule, the TGI [8] was 68.8 µM, the GI50 [9] was 3.49 µM and the TGI [9] was 12.8 µM. For the same molecule, the GI50 [10] was 320 nM, the TGI [10] was 11.2 µM and the GI50 [11] was 0.485 µM. The TGI [11] was 13.6 µM, the GI50 [12] was 0.374 µM and the TGI [12] was 13.1 µM. For the same molecule, the GI50 [13] was 472 nM, the TGI [13] was 14.7 µM and the GI50 [14] was 0.496 µM. For the same molecule, the TGI [14] was 18.7 µM, the GI50 [15] was 12.4 µM and the TGI [15] was 62.3 µM. It also gave a GI50 [16] of 0.327 µM, a TGI [16] of 14.5 µM and a GI50 [17] of 1260 nM. For the same molecule, the TGI [17] was 13 µM, the GI50 [18] was 0.424 µM and the TGI [18] was over 100 µM. For the same molecule, the GI50 [19] was 0.35 µM, the TGI [19] was 15.5 µM and the GI50 [20] was 0.384 µM. It also gave a TGI [20] of 14.7 µM, a GI50 [21] of 845 nM and a TGI [21] of 3.47 µM. It also gave a GI50 [22] of 1310 nM, a TGI [22] of 4.9 µM and a GI50 [23] of 306 nM. The TGI [23] was 17.1 µM, the GI50 [24] was 0.896 µM and the TGI [24] was 14 µM. For the same molecule, the GI50 [25] was 0.354 µM, the TGI [25] was 15.4 µM and the GI50 [26] was 0.822 µM. For the same molecule, the TGI [26] was 21.4 µM, the GI50 [27] was 18.7 µM and the TGI [27] was 69 µM. For the same molecule, the GI50 [28] was 5.46 µM, the TGI [28] was 23 µM and the GI50 [29] was 1770 nM. The TGI [29] was 14.1 µM, the GI50 [30] was 283 nM and the TGI [30] was 1110 nM. The GI50 [31] was 2.05 µM, the TGI [31] was 27.2 µM and the GI50 [32] was 412 nM. For the same molecule, the TGI [32] was 13.3 µM, the GI50 [33] was 1.48 µM and the TGI [33] was 3.26 µM. For the same molecule, the GI50 [34] was 8.2 µM, the TGI [34] was 24.9 µM and the GI50 [35] was 3.17 µM. For the same molecule, the TGI [35] was 16.7 µM, the GI50 [36] was 0.579 µM and the TGI [36] was 24.2 µM. The GI50 [37] was 345 nM, the TGI [37] was 5.6 µM and the GI50 [38] was 4.05 µM. It also gave a TGI [38] of 15.3 µM, a GI50 [39] of 0.477 µM and a TGI [39] of 19 µM. It also gave a GI50 [40] of 2160 nM, a TGI [40] of 33.1 µM and a GI50 [41] of 0.324 µM. The TGI [41] was 11.9 µM, the GI50 [42] was 0.53 µM and the TGI [42] was 6.8 µM. It also gave a GI50 [43] of 2.35 µM, a TGI [43] of 12.1 µM and a GI50 [44] of 939 nM. It also gave a TGI [44] of 13.6 µM, a GI50 [45] of 8.46 µM and a TGI [45] of 36.7 µM. It also gave a GI50 [46] of 0.434 µM, a TGI [46] of 18.3 µM and a GI50 [47] of 4.52 µM. For the same molecule, the TGI [47] was 23.3 µM, the GI50 [48] was 1.37 µM and the TGI [48] was 18.1 µM. The GI50 [49] was 444 nM, the TGI [49] was 28.1 µM and the GI50 [50] was 0.47 µM. It also gave a TGI [50] of 11.1 µM, a GI50 [51] of 0.962 µM and a TGI [51] of 22.9 µM. The GI50 [52] was 0.596 µM, the TGI [52] was 15 µM and the GI50 [53] was 0.997 µM. It also gave a TGI [53] of 18.4 µM, a GI50 [54] of 4.68 µM and a TGI [54] of 19.4 µM. The GI50 [55] was 0.629 µM, the TGI [55] was 17.2 µM and the GI50 [56] was 1.03 µM. It also gave a TGI [56] of 21.9 µM.

With `Cc1ncc([N+](=O)[O-])n1CCNCCCn1ccnc1[N+](=O)[O-]` the TGI [1] was over 100 µM, the TGI [3] was over 100 µM and the TGI [5] was over 100 µM. It also gave a TGI [9] of over 100 µM, a TGI [10] of over 100 µM and a TGI [11] of over 100 µM. The TGI [12] was over 100 µM, the TGI [13] was over 100 µM and the TGI [15] was over 100 µM. The TGI [16] was over 100 µM, the TGI [18] was over 100 µM and the TGI [19] was over 100 µM. It also gave a TGI [22] of over 100 µM, a TGI [23] of over 100 µM and a TGI [26] of over 100 µM. For the same molecule, the TGI [27] was over 100 µM, the TGI [28] was over 100 µM and the TGI [29] was over 100 µM. The TGI [30] was over 100000 nM, the TGI [32] was over 100 µM and the TGI [34] was over 100 µM. For the same molecule, the TGI [35] was over 100 µM, the TGI [36] was over 100 µM and the TGI [37] was over 100 µM. For the same molecule, the TGI [39] was over 100 µM, the TGI [40] was over 100 µM and the TGI [41] was over 100 µM. The TGI [42] was over 100 µM, the TGI [43] was over 100 µM and the TGI [44] was over 100 µM. The TGI [46] was over 100 µM, the TGI [48] was over 100 µM and the TGI [49] was over 100 µM. For the same molecule, the TGI [50] was over 100 µM, the TGI [52] was over 100 µM and the TGI [53] was over 100 µM. For the same molecule, the TGI [54] was over 100 µM.

Molecule `C=CC/C(=C\COP(=O)(OCc1ccc([N+](=O)[O-])o1)N(C)CCCCCl)CC/C=C(\C)CCC=C(C)C` (centres undefined) has a GI50 [1] of 13.2 µM, a TGI [1] of 25.9 µM and a GI50 [3] of 13.9 µM. It also gave a TGI [3] of 26.9 µM, a GI50 [4] of 15.5 µM and a TGI [4] of 30.2 µM. It also gave a GI50 [57] of 8.03 µM, a TGI [57] of 21.2 µM and a GI50 [5] of 48.3 nM. For the same molecule, the TGI [5] was 15.9 µM, the GI50 [6] was 20.4 µM and the TGI [6] was 43.2 µM. It also gave a GI50 [7] of 11.6 µM, a TGI [7] of 23.8 µM and a GI50 [8] of 18.9 µM. The TGI [8] was 35.7 µM, the GI50 [10] was 3760 nM and the TGI [10] was 18 µM. For the same molecule, the GI50 [11] was 12.8 µM, the TGI [11] was 30.4 µM and the GI50 [12] was 21.9 µM. It also gave a TGI [12] of over 100 µM, a GI50 [14] of 14.5 µM and a TGI [14] of 27.6 µM. It also gave a GI50 [16] of 11.6 µM, a TGI [16] of 25.5 µM and a GI50 [18] of 17.3 µM. It also gave a TGI [18] of over 100 µM, a GI50 [19] of 9.94 µM and a TGI [19] of over 100 µM. For the same molecule, the GI50 [20] was 13.8 µM, the TGI [20] was 31.4 µM and the GI50 [21] was 4040 nM. The TGI [21] was 18.2 µM, the GI50 [24] was 12.7 µM and the TGI [24] was 34.1 µM. It also gave a GI50 [25] of 16.8 µM, a TGI [25] of 44.1 µM and a GI50 [26] of 8.03 µM. The TGI [26] was 36.3 µM, the GI50 [29] was 2560 nM and the TGI [29] was 15.1 µM. It also gave a GI50 [31] of 11.9 µM, a TGI [31] of 24.1 µM and a GI50 [33] of 17.2 µM. The TGI [33] was 39.3 µM, the GI50 [34] was 15.7 µM and the TGI [34] was 29 µM. For the same molecule, the GI50 [35] was 12.6 µM, the TGI [35] was 25.1 µM and the GI50 [36] was 12 µM. The TGI [36] was 24.3 µM, the GI50 [37] was 4660 nM and the TGI [37] was 19.3 µM. The GI50 [38] was 12.4 µM, the TGI [38] was 24.9 µM and the GI50 [39] was 12 µM. For the same molecule, the TGI [39] was 29 µM, the GI50 [40] was 17.1 nM and the TGI [40] was 3.21 µM. For the same molecule, the GI50 [41] was 22.5 µM, the TGI [41] was 39.4 µM and the GI50 [42] was 13.6 µM. For the same molecule, the TGI [42] was 26.4 µM, the GI50 [43] was 17.2 µM and the TGI [43] was 32.9 µM. It also gave a GI50 [45] of 16 µM, a TGI [45] of 30.6 µM and a GI50 [46] of 13.6 µM. For the same molecule, the TGI [46] was 26.4 µM, the GI50 [47] was 19.5 µM and the TGI [47] was 34.9 µM. It also gave a GI50 [48] of 13.5 µM, a TGI [48] of 29.1 µM and a GI50 [49] of 3460 nM. The TGI [49] was 41.8 µM, the GI50 [50] was 9.44 µM and the TGI [50] was 21.3 µM. For the same molecule, the GI50 [51] was 20.6 µM, the TGI [51] was 53.9 µM and the GI50 [52] was 83.8 µM. It also gave a TGI [52] of over 100 µM, a GI50 [53] of 11 µM and a TGI [53] of 23 µM. For the same molecule, the GI50 [54] was 16.5 µM, the TGI [54] was 30 µM and the GI50 [55] was 13.8 µM. For the same molecule, the TGI [55] was 26.7 µM, the GI50 [56] was 12.6 µM and the TGI [56] was 25.1 µM.
